Converted amounts (≈) assume the structure as drawn. Bounds are passed on as bounds.

The solubility is how much of the substance goes into solution per volume.

One data set is described as follows: Solubility in chloroform. It is filed as physicochemical. Conditions: organic solvent or mixture. The procedure: (§1) For the absorption characteristic of such compounds, absorption spectra were measured by use of a near infrared photospectrometer to confirm that they could be utilized as materials for the optical switch operating at a wavelength of 1.3 μm. Further, for the thermal stability, the thermal decomposition temperature was measured by thermogravimetry and differential thermal analysis to confirm that they were thermally stable materials for the optical switch. Further, their solubility in organic solvents such as chloroform and acetone was confirmed.

Data set [1] is described as follows: Thermal decomposition temperature by thermogravimetry and differential thermal analysis. It is filed as physicochemical. How it is done: as §1

Turning to `CCN(CC)c1cc(O)c2c(c1)OC(=O)/C2=C(/[O-])C1=C2C(O)=CC(=[N+](CC)CC)C=C2OC1=O` [Compound (2)], the solubility in “Solubility in chloroform” is 3 mg/mL (≈ 6.43 mM). In addition, in data set [1], the “decomposition temperature (thermal stability)” value is at least 200 °C.
In the same order, the values of `CC(C)CN(CC(C)C)c1cc(O)c2c(c1)OC(=O)/C2=C(/[O-])C1=C2C(O)=CC(=[N+](CC(C)C)CC(C)C)C=C2OC1=O` [Compound (1)] are 54 mg/mL (≈ 93.3 mM) and 202.7 °C.

The values are drawn from patent US6825363B2, “Compounds useful in optical switching and manufacturing method thereof” (Fuji Xerox Co., Ltd., priority 2002, dated 2004).
